One test has as its target T1, BRM (Homo sapiens, UniProt P51531).
T1 construct: made in house; host or cells: High Five insect cells
Nature of the test: ATPase catalytic activity assay (ADP-Glo), BRM. It is filed as biochemical. To be noted: Table 10; for Ratio (BRG1 IC50 (μM) divided by BRM IC50 (μM)): ATPase assay, selectivity BRG1/BRM; for IC50: ATPase catalytic activity assay (ADP-Glo). Put shortly:
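Reaction holds 30 nM BRM, 20 nM salmon sperm DNA and 400 μM ATP in 20 mM Tris pH 8, 20 mM MgCl2, 50 mM NaCl, 0.1% Tween-20, 1 mM DTT. Incubated 1 h at room temperature. ADP formed is detected by ADP-Glo luminescence.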

The target in the next test is T2, BRG-1 (Homo sapiens, UniProt P51532).
T2 construct: made in house; host or cells: High Five insect cells
Nature of the test: ATPase catalytic activity assay (ADP-Glo), BRG-1. Type of test: biochemical. To be noted: Table 10, read-out: BRG1 IC50. In a few lines: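 BRG-1 ATPase activity was measured in vitro by ADP-Glo. After the reaction, ADP-Glo Reagent depleted unconsumed ATP (40 min, room temperature), then Kinase Detection Reagent converted product ADP to ATP (60 min, room temperature), and luciferase luminescence was read.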
(In ADP-Glo the light output rises with the ADP produced.)

T1 sequence (P51531 whole entry): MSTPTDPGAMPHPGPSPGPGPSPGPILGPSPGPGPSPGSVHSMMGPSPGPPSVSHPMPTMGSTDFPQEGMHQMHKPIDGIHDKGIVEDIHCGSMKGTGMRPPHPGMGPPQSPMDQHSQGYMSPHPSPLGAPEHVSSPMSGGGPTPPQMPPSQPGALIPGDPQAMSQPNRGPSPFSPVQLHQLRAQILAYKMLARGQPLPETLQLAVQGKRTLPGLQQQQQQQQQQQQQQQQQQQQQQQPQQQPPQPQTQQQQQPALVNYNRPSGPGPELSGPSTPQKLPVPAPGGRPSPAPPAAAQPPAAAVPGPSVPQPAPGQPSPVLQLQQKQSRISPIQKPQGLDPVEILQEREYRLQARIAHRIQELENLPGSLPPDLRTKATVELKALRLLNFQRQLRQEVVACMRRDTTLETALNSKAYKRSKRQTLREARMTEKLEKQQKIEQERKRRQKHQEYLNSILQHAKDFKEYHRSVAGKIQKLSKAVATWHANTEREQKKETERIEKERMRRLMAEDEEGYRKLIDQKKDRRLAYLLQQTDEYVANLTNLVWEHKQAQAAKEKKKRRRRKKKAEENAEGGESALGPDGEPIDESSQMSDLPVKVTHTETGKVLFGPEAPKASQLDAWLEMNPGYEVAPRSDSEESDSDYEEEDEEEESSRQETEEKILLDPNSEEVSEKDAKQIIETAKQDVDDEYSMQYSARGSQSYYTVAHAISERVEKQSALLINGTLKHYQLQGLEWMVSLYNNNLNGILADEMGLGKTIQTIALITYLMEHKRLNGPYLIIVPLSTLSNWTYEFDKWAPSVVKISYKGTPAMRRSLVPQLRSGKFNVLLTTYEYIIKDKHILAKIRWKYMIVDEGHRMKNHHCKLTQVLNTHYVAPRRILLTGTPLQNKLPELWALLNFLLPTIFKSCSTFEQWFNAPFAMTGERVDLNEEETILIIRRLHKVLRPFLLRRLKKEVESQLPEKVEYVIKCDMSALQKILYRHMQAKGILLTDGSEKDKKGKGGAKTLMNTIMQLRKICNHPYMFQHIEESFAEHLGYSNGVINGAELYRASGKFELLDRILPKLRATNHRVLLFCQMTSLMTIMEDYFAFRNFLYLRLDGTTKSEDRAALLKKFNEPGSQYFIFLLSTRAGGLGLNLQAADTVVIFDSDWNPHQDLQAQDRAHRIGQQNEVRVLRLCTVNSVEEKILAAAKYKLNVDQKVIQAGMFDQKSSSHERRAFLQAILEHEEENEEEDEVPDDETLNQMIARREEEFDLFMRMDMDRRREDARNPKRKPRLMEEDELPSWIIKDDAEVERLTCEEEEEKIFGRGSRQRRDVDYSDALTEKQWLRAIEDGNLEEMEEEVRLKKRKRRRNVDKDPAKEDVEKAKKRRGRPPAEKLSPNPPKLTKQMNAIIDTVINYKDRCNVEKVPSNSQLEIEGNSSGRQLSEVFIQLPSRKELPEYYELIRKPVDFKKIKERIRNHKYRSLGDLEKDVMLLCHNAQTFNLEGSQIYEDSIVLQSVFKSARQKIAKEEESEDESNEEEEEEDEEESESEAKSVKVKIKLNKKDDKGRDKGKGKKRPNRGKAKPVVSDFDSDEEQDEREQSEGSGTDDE
T2 sequence (P51532 whole entry): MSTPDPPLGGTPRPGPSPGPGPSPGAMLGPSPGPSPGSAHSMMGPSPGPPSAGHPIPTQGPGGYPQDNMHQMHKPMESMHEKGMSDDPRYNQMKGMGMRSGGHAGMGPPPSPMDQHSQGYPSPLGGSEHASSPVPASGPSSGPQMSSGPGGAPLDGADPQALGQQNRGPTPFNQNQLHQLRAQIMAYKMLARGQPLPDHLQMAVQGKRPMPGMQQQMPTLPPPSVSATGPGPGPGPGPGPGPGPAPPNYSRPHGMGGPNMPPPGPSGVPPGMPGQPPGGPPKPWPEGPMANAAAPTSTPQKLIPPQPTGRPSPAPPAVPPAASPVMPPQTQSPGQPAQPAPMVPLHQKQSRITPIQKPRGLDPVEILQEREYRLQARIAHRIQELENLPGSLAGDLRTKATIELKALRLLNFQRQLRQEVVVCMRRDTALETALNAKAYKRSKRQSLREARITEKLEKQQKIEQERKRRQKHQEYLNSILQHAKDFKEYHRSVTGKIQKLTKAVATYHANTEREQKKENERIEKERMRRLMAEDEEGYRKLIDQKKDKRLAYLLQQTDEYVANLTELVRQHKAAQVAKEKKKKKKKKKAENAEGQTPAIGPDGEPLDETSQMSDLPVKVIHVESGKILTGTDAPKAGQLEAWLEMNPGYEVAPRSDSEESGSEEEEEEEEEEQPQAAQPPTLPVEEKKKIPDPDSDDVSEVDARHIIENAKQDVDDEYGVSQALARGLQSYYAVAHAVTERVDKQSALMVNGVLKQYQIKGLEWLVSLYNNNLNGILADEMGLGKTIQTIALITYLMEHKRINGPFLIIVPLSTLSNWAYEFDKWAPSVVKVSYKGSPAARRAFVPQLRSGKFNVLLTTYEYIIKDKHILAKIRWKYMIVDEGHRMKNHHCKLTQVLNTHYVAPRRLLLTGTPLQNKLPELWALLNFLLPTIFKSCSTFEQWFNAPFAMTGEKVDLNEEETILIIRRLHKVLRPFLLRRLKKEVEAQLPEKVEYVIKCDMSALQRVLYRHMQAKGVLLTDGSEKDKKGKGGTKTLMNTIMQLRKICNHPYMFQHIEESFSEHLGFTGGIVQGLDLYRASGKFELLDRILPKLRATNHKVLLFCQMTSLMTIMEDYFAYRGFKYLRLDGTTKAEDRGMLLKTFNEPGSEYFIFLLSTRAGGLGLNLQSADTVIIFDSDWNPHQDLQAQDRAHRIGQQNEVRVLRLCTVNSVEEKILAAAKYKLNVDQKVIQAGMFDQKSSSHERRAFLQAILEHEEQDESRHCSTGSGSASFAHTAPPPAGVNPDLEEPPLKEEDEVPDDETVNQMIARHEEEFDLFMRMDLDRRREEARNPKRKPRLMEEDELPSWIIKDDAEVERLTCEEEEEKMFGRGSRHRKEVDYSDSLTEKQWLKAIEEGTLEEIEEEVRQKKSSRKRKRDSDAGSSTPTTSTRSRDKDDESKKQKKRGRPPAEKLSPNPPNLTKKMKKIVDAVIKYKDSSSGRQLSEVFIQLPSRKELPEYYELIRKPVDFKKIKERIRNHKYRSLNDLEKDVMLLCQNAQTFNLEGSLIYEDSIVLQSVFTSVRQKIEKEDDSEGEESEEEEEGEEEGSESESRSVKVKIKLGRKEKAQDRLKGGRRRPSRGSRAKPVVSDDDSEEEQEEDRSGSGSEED

On to `C[C@H](F)c1cnc2c(c1)OCCN2c1ccc2cnc(CNC(=O)c3cc(F)c4c(c3)S(=O)(=O)[C@@H](F)CCO4)cc2n1` [Compound 198], for which the “Ratio (BRG1 IC50 (μM) divided by BRM IC50 (μM))” value at BRM was 17.01. Further, the concentration for half-maximal inhibition (IC50) (as a rule, the midpoint of a concentration-inhibition curve) on BRM came out at 6 nM; on BRG-1 it was 103 nM.

For the compound `C[C@@H]1CN(c2cccc(-c3ccc4cnc(CNC(=O)c5ccc6c(c5)S(=O)(=O)[C@H](F)CO[C@H]6C)cc4n3)n2)C[C@H](C)O1` [Compound 200], on BRM, the “Ratio (BRG1 IC50 (μM) divided by BRM IC50 (μM))” value stood at 16.77 and it took 6.1 nM to reach half-maximal inhibition (IC50). Moreover, the concentration for half-maximal inhibition (IC50) on BRG-1 amounted to 101 nM.

In the case of `COCCc1cnc2c(c1)OCCN2c1ccc2cnc(CNC(=O)c3cc(F)c4c(c3)S(=O)(=O)[C@@H](F)CCO4)cc2n1` [Compound 201], on BRM, the “Ratio (BRG1 IC50 (μM) divided by BRM IC50 (μM))” value is listed as 10.41 and the IC50 was found to be 6.1 nM. Moreover, at BRG-1, the half-inhibitory concentration (IC50) was found to be 64 nM.

Take `COc1nc([C@@H](F)CF)ccc1-c1ccc2cnc(CNC(=O)c3cc(F)c4c(c3)S(=O)(=O)[C@@H](F)CCO4)cc2n1` [Compound 202]: at BRM, the “Ratio (BRG1 IC50 (μM) divided by BRM IC50 (μM))” value is reported as 15.85. The half-inhibitory concentration (IC50) against BRM turned out to be 6.1 nM; on BRG-1, 125 nM.

On to `[2H]C1([2H])Oc2c(F)cc(C(=O)NCc3cc4nc(N5CCOc6ccc(C(F)F)nc65)ccc4cn3)cc2S(=O)(=O)[C@@]([2H])(F)C1([2H])[2H]` [Compound 203], for which the “Ratio (BRG1 IC50 (μM) divided by BRM IC50 (μM))” value on BRM is reported as 14.89. Further, the half-inhibitory concentration (IC50) against BRM worked out at 6.1 nM; at BRG-1 it was 92 nM.

For the compound `O=C(NCc1cc2nc(N3CCOc4cc(N5CCC(F)CC5)cnc43)ccc2cn1)c1cc(F)c2c(c1)S(=O)(=O)[C@@H](F)CCO2` [Compound 204], at BRM, the “Ratio (BRG1 IC50 (μM) divided by BRM IC50 (μM))” value was 11.71 and the IC50 stood at 6.1 nM. In addition, the IC50 on BRG-1 came to 71.7 nM.

With `O=C(NCc1cc2nc(-c3cccc(OC(F)F)n3)ccc2cn1)c1cc(F)c2c(c1)S(=O)(=O)[C@@H](F)COC2` [Compound 205], on BRM, the “Ratio (BRG1 IC50 (μM) divided by BRM IC50 (μM))” value was determined as 23.40 and the IC50 is 6.1 nM. At BRG-1, the IC50 was found to be 128 nM.

In the case of `Cc1cc(C(=O)NCc2cc3nc(-c4cccc(OC(F)F)n4)ccc3cn2)cc2c1COC[C@H](F)S2(=O)=O` [Compound 206], on BRM, the “Ratio (BRG1 IC50 (μM) divided by BRM IC50 (μM))” value was determined as 31.39 and the IC50 was determined as 6.2 nM. Moreover, the IC50 at BRG-1 was determined as 197 nM.

For the compound `O=C(NCc1cc2nc(N3CCOc4ccc([C@@H]5C[C@H]5F)nc43)ccc2cn1)c1cc(F)c2c(c1)S(=O)(=O)[C@@H](F)COC2` [Compound 207], on BRM, the “Ratio (BRG1 IC50 (μM) divided by BRM IC50 (μM))” value is 18.77 and half-maximal inhibition (IC50) was put at 6.2 nM. Further, the half-inhibitory concentration (IC50) on BRG-1 stood at 113 nM.

In the case of `CO[C@@H]1C[C@H]1N(C)c1cccc(-c2ccc3cnc(CNC(=O)c4cc(F)c5c(c4)S(=O)(=O)[C@@H](F)COC5)cc3n2)n1` [Compound 215], at BRM, the “Ratio (BRG1 IC50 (μM) divided by BRM IC50 (μM))” value came to 13.76 and the concentration for half-maximal inhibition (IC50) stood at 6.5 nM. Also, the IC50 on BRG-1 was 89.3 nM.

Consider `O=C(NCc1cc2nc(N3CCOc4cc(C5CC5)cnc43)ccc2cn1)c1cc(Cl)c2c(c1)S(=O)(=O)[C@@H](F)CCO2` [Compound 216], for which the “Ratio (BRG1 IC50 (μM) divided by BRM IC50 (μM))” value on BRM is on record as 21.18. The half-inhibitory concentration (IC50) on BRM amounted to 6.5 nM; at BRG-1 it was 148 nM.

`O=C(NCc1cc2nc(N3CCCc4sc(C(F)F)nc43)ccc2cn1)c1cc(F)c2c(c1)S(=O)(=O)[C@@H](F)CCO2` [Compound 217]: on BRM, the “Ratio (BRG1 IC50 (μM) divided by BRM IC50 (μM))” value is listed as 9.68 and the IC50 worked out at 6.5 nM. Further, the concentration for half-maximal inhibition (IC50) at BRG-1 is 63.4 nM.

As for `COc1nc(C(F)F)ccc1-c1ccc2cnc(CNC(=O)c3cc(Cl)c4c(c3)S(=O)(=O)[C@@H](F)COC4)cc2n1` [Compound 221], at BRM, the “Ratio (BRG1 IC50 (μM) divided by BRM IC50 (μM))” value was found to be 27.18 and the 50% inhibitory concentration (IC50) was 6.9 nM. In addition, the IC50 on BRG-1 was determined as 178 nM.

As for `C[C@@H]1CN(c2cccc(-c3ccc4cnc(CNC(=O)c5cc(F)c6c(c5)S(=O)(=O)[C@H](F)CO[C@@H]6C)cc4n3)n2)C[C@H](C)O1` [Compound 222], at BRM, the “Ratio (BRG1 IC50 (μM) divided by BRM IC50 (μM))” value was 11.79 and the IC50 amounted to 7 nM. For the same compound, the IC50 on BRG-1 came to 79.8 nM.

For the origin of these results see US12139487B2, “Compounds and uses thereof” (Foghorn Therapeutics Inc., priority 2022, dated 2024).
